Results as given in PMC12140386, “Diallyl Trisulfide From Garlic Regulates RAB18 Phase Separation to Inhibit Lipophagy and Induce Cuproptosis in Hepatic Stellate Cells for Antifibrotic Effects” (Advanced Science, 2025).

Tests used:
[1] = molecular target: T1, purified RAB18 protein (GFP‐RAB18) (Homo sapiens, UniProt Q9NP72); assay: FRAP of RAB18 droplets (also AFM); type: binding; details: 10 µM DATs; 50 µM protein; 50 mM HEPES pH 7.4, 150 mM NaCl; no added CaCl2
T1 construct: GFP-fusion RAB18, expressed in E. coli BL21 (DE3), Ni-NTA purified
T1 sequence (Q9NP72 whole entry, the tested form may be a part): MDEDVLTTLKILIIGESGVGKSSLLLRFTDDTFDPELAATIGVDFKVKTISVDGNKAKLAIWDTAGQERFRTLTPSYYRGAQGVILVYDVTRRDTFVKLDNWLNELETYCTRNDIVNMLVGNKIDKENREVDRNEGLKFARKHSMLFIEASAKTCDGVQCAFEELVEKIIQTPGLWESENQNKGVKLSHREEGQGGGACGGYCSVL

[2] = molecular target: T2, RAB18 protein in LX2 cells (Homo sapiens, UniProt Q9NP72); assay: cellular thermal shift assay; type: cell-based; details: 10 µM DATs, 24 h
T2 construct: endogenous RAB18 in human hepatic stellate cell line LX2 (CETSA)
T2 sequence (Q9NP72 1-203): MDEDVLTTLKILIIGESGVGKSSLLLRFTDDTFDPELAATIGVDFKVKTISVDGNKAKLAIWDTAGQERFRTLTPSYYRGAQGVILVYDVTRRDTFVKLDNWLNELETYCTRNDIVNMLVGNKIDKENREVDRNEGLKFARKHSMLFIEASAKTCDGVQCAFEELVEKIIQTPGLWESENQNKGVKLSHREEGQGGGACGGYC

C=CCSSSCC=C [DATs, Diallyl trisulfides]
FRAP recovery percentage [1]: ~ ≈80% | CETSA [2]: DATs exhibit a strong affinity for RAB18, effectively binding to and stabilizing the conformation of RAB18
